Consider one cell line from the supplement of paper PMC10307832.

What all share (test): relative viability (nuclei count vs DMSO), 5 days (fraction); higher = more cells survive
Compound in the experiment “Bemcentinib + OSI-027”: Nc1nc(Nc2ccc3c(c2)CC[C@@H](N2CCCC2)CC3)nn1-c1cc2c(nn1)-c1ccccc1CCC2 [Bemcentinib] + COc1cccc2cc(-c3nc([C@H]4CC[C@H](C(=O)O)CC4)n4ncnc(N)c34)[nH]c12 [OSI-027] (partner 0.5 µM)
Put shortly: (§1)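 For relative viability, nuclei counts in treated wells were divided by those in vehicle wells. Lung cancer cell lines had been pin-tool dosed in 1536-well plates the day after seeding and cultured for 5 days, then fixed and stained in one step (final 0.05% Triton X-100, 1% formaldehyde, 1 ug/ml Hoechst) and imaged at 4×. Doses were one drug alone or a fixed anchor-drug dose plus five library-drug doses (not always all listed) in √10 steps, and values are duplicate-plate medians.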

Compound in experiment [1]: CC1=CC=C(C=C1)C(=O)CN2C3=C(CCCC3)SC2=N [Pifithrin_alpha] + CS(=O)(=O)CCNCc1ccc(-c2ccc3ncnc(Nc4ccc(OCc5cccc(F)c5)c(Cl)c4)c3c2)o1 [Lapatinib] (partner 2 µM)
An outline of the steps: as §1

Compound in the experiment “Axitinib + Crizotinib”: CNC(=O)c1ccccc1Sc1ccc2c(/C=C/c3ccccn3)n[nH]c2c1 [Axitinib] + C[C@@H](Oc1cc(-c2cnn(C3CCNCC3)c2)cnc1N)c1c(Cl)ccc(F)c1Cl [Crizotinib] (partner 1 µM)
An outline of the steps: as §1

Compound in the experiment “Axitinib + OSI-027”: CNC(=O)c1ccccc1Sc1ccc2c(/C=C/c3ccccn3)n[nH]c2c1 [Axitinib] + COc1cccc2cc(-c3nc([C@H]4CC[C@H](C(=O)O)CC4)n4ncnc(N)c34)[nH]c12 [OSI-027] (partner 0.5 µM)
An outline of the steps: as §1

NCI-H650: the relative viability with Bemcentinib + OSI-027 (first compound 0.04 µM) stood at 0.468; with Bemcentinib + OSI-027 (first compound 0.1265 µM), 0.501; with Bemcentinib + OSI-027 (first compound 0.4 µM) it was 0.582; with Bemcentinib + OSI-027 (first compound 1.265 µM), 0.496; with Bemcentinib + OSI-027 (first compound 4 µM), 0.512; in experiment [1] (first compound 3.162 µM), 1.11. For the same cell line, the relative viability in experiment [1] (first compound 10 µM) worked out at 1.11; in experiment [1] (first compound 31.62 µM) it was 0.532; in experiment [1] (first compound 100 µM), 0.767; with Axitinib + Crizotinib (first compound 0.005 µM), 0.859; in the experiment with Axitinib + Crizotinib (first compound 0.01581 µM) it was 0.745; with Axitinib + Crizotinib (first compound 0.05 µM), 0.779. Moreover, the relative viability came to 0.782 with Axitinib + Crizotinib (first compound 0.1581 µM); 0.903 in the experiment with Axitinib + Crizotinib (first compound 0.5 µM); 0.533 in the experiment with Axitinib + OSI-027 (first compound 0.005 µM); 0.486 with Axitinib + OSI-027 (first compound 0.01581 µM); 0.517 in the experiment with Axitinib + OSI-027 (first compound 0.05 µM); 0.571 in the experiment with Axitinib + OSI-027 (first compound 0.1581 µM). Also, the relative viability with Axitinib + OSI-027 (first compound 0.5 µM) was determined as 0.584.
